Paper PMC9380671, “Development of spiro-3-indolin-2-one containing compounds of antiproliferative and anti-SARS-CoV-2 properties” (Scientific Reports, 2022)
Read-outs that look alike come from different tables or passages of the source.

How the values were obtained:
[1] = system: MCF7 (breast) cancer cell line; experiment: MTT antiproliferation, MCF7; type: cell-based, human; conditions: for IC50: Homo sapiens, MCF7, 72 h, read-out: IC50 (µM) ± SEM MCF7; for SI (selectivity index) MCF7: IC50 of RPE1/IC50 of cancer cell line
Procedure: (§1) Antiproliferation properties of the targeted agents were investigated by the standard MTT technique against diverse human cancer cell lines [MCF7 (breast), HCT116 (colon), A431 (skin squamous) and PaCa2 (pancreatic)][67] (Table 1, Supplementary Figs. S48‒S51).
(§2) Cells were seeded at concentration of 30000 cells per well in fresh complete growth medium in 96-well tissue culture microtiter plates for 24 h. […] 0.5% DMSO was used as negative control. Triplicate wells were prepared for each individual dose. After 72 h of incubation, medium was aspirated, 40 μl MTT salt (2.5 mg ml^-1) was added to each well and incubated for further 4 h at 37 °C. To stop the reaction and dissolve the formed crystals, 150 μl of 10% sodium dodecyl sulfate (SDS) in deionized water was added to each well and incubated overnight at 37 °C.
(§3) Data were collected as mean values for experiments performed in triplicates for each individual dose which had been measured by MTT assay. […] The cell surviving fraction was calculated according to the following equation.
(§4) Surviving fraction = OpticaldensityO.D.oftreatedcellsO.D.ofcontrolcells
(§5) Statistical calculations for determination of the mean and standard error mean values were determined by SPSS 16 software.

[2] = system: HCT116 (colon) cancer cell line; experiment: MTT antiproliferation, HCT116; type: cell-based, human; conditions: for IC50: Homo sapiens, HCT-116, 72 h, read-out: IC50 (µM) ± SEM HCT116; for SI (selectivity index) HCT116: IC50 of RPE1/IC50 of cancer cell line
Procedure: as §1, §2, §3, §4, §5

[3] = system: A431 (skin squamous) cancer cell line; experiment: MTT antiproliferation, A431; type: cell-based, human; conditions: for IC50: Homo sapiens; for SI (selectivity index) A431: IC50 of RPE1/IC50 of cancer cell line
Procedure: as §1, §2, §3, §4, §5

[4] = system: PaCa2 (pancreatic) cancer cell line; experiment: MTT antiproliferation, PaCa-2; type: cell-based, human; conditions: for IC50: Homo sapiens, PaCa-2, 72 h, read-out: IC50 (µM) ± SEM PaCa-2; for SI (selectivity index) PaCa-2: IC50 of RPE1/IC50 of cancer cell line
Procedure: as §1
Cells were suspended in DMEM medium for MCF7, A431, PaCa-2 and McCoy’s 5A for HCT116 in addition to 1% antibiotic–antimycotic mixture (10000 μg ml^-1 potassium penicillin, 10000 μg ml^-1 streptomycin sulfate and 25 μg ml^-1 amphotericin B), 10% fetal bovine serum and 1% L-glutamine at 37 °C, under 5% CO2 and 95% humidity. Cells were seeded at concentration of 30000 cells per well in fresh complete growth medium in 96-well tissue culture microtiter plates for 24 h. Media was aspirated, fresh complete medium was added and cells were incubated with different concentrations of the tested compound to give a final concentration of [50, 25, 12.5 and 6.25 μM “in addition to 3.125, 1.56 and 0.78 μM in case of high potent analogues”). 0.5% DMSO was used as negative control. Triplicate wells were prepared for each individual dose. After 72 h of incubation, medium was aspirated, 40 μl MTT salt (2.5 mg ml^-1) was added to each well and incubated for further 4 h at 37 °C. To stop the reaction and dissolve the formed crystals, 150 μl of 10% sodium dodecyl sulfate (SDS) in deionized water was added to each well and incubated overnight at 37 °C. The absorbance was then measured at 570 nm and a reference wavelength of 595 nm.
as §3, §4
(§6) Statistical calculations for determination of the mean and standard error mean values were determined by SPSS 16 software. The observed anti-proliferative properties are presented in Table 1 (Supplementary Figs. S48‒S52).

[5] = system: RPE1 (normal human immortalized retinal pigment epithelial cell line); experiment: MTT toxicity towards normal cells, RPE1; type: cell-based; conditions: RPE-1, read-out: IC50 (µM) ± SEM RPE1
Procedure: The safety of the synthesized agents against non-cancer/normal RPE1 (retinal pigment epithelium) cell line was assessed (Table 1, Supplementary Fig. S52). The SI (selectivity index) for the tested compounds against RPE1 cell line confirms the safety towards non-cancer cells. […] Compound 6d and 6h which are also of high anti-PaCa2 show remarkable SI values (SI = > 3.8, > 3.6, respectively).
The agents synthesized were also tested against RPE1 (normal human immortalized retinal pigment epithelial cell line) cell (in DMEM-F12 medium) to determine the toxicity/selectivity towards normal cells relative to the cancer cell lines utilized.
as §6

[6] = target: T1, EGFR (Homo sapiens, UniProt P00533); type: cell-based; conditions: western blot, MCF7, compound at its MTT IC50; for EGFR RQ (relative quantification): control RQ 3.4461
T1 construct: Western blot technique was considered for EGFR and VEGFR-2 properties determination; endogenous in cells; host or cells: MCF7 (breast cancer cell line)
Excerpt: (§7) The western blot technique was applied utilizing the IC50 observed for each respective agent synthesized during MTT assay[85],[86]. Consideration of multi-targeted inhibitory properties investigation is based in the fact that cancer initiation and proliferation sometimes utilizes many receptors or signaling pathways.
(§8) Western blot technique was considered for EGFR and VEGFR-2 properties determination utilizing the IC50 observed of each respective agent synthesized during MTT assay against MCF7 (breast) cancer cell line. All the studies were conducted according to the manufacturer’s instruction.^10,^11

[7] = target: T2, VEGFR-2 (Homo sapiens, UniProt P35968); type: cell-based; conditions: western blot, MCF7, compound at its MTT IC50; for VEGFR-2 RQ (relative quantification): control RQ 3.2634
T2 construct: Western blot technique was considered for EGFR and VEGFR-2 properties determination; endogenous in cells; host or cells: MCF7 (breast cancer cell line)
Excerpt: as §7, §8

[8] = system: SARS-CoV-2 (hCoV-19/Egypt/NRC-03/2020); experiment: Vero-E6 cell viral infection model, anti-SARS-CoV-2 IC50 (CPE, crystal violet); type: cell-based; conditions: for IC50: Severe acute respiratory syndrome coronavirus 2, Vero C1008; for SI = CC50/IC50: Vero-E6, SARS-CoV-2
[9] = MTT cytotoxicity assay (CC50); type: cell-based; conditions: African green monkey, VERO-E6 cells
Procedure: The cytotoxic activity of the compounds was tested in VERO-E6 cells by using the 3-(4,5-dimethylthiazol-2-yl)-2,5-diphenyltetrazolium bromide (MTT) method with minor modifications. Briefly, the cells were seeded in 96 well-plates […] at a density of 3 x 10^5 cell/ml and incubated for 24 h at 37 °C in 5% CO2. After 24 h, cells were treated with various concentrated of the tested compounds in triplicates. 24 h later, the supernatant was discarded and cell monolayers were washed with sterile 1x phosphate buffer saline (PBS) 3 times and MTT solution (20 µl of 5 mg/ml) was added to each well and incubated at 37 °C for 4 h followed by medium aspiration. In each well, the formed formazan crystals were dissolved with 200 µl of acidified isopropanol (0.04 M HCl in absolute isopropanol = 0.073 ml HCl in 50 ml isopropanol). Eventually, the absorbance was measured at λmax 570 nm using the Anthos Zenyth 200rt plate reader (Anthos Labtec Instruments, Heerhugowaard, Netherlands). The cytotoxicity of various concentrations compared to the untreated cells was determined using nonlinear regression analysis by plotting log inhibitor versus normalized response.^12^-14

[10] = target: AChE (Homo sapiens, UniProt P22303); experiment: AChE inhibition (DTNB, acetylthiocholine); type: biochemical; conditions: for IC50: read-out: AChE (IC50, μM) ± SD
Procedure: All compounds were dissolved in MeOH.

[11] = target: BChE (Homo sapiens, UniProt P06276); experiment: BChE inhibition (DTNB, butyrylthiocholine iodide)
[12] = A-431, 72 h, read-out: IC50 (µM) ± SEM A431
[13] = A-431, read-out: Observed log(IC50, μM) (A431) (converted)
[14] = Vero-E6, 72 h, reduction of virus-induced CPE, read-out: IC50 (µM) SARS-CoV-2
[15] = log of observed IC50 in μM, read-out: Observed log(IC50, μM) (SARS-CoV-2) (converted)

BChE, sequence (P06276 29-602, species assumed): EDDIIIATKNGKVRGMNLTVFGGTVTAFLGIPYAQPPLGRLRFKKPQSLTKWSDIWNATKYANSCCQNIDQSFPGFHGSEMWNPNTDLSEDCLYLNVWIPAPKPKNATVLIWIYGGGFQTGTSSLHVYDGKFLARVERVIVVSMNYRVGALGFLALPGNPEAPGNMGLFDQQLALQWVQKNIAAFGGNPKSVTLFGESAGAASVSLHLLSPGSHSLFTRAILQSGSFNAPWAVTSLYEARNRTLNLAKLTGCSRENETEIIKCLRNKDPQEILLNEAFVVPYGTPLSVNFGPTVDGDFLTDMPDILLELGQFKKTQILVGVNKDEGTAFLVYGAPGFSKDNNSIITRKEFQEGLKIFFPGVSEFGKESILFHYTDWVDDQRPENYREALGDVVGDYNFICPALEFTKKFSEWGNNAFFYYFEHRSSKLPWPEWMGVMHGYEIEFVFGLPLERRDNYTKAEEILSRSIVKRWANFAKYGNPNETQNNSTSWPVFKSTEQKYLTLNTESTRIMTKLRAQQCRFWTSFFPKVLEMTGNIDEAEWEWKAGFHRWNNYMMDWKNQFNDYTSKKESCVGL
T2 sequence (P35968 20-1356): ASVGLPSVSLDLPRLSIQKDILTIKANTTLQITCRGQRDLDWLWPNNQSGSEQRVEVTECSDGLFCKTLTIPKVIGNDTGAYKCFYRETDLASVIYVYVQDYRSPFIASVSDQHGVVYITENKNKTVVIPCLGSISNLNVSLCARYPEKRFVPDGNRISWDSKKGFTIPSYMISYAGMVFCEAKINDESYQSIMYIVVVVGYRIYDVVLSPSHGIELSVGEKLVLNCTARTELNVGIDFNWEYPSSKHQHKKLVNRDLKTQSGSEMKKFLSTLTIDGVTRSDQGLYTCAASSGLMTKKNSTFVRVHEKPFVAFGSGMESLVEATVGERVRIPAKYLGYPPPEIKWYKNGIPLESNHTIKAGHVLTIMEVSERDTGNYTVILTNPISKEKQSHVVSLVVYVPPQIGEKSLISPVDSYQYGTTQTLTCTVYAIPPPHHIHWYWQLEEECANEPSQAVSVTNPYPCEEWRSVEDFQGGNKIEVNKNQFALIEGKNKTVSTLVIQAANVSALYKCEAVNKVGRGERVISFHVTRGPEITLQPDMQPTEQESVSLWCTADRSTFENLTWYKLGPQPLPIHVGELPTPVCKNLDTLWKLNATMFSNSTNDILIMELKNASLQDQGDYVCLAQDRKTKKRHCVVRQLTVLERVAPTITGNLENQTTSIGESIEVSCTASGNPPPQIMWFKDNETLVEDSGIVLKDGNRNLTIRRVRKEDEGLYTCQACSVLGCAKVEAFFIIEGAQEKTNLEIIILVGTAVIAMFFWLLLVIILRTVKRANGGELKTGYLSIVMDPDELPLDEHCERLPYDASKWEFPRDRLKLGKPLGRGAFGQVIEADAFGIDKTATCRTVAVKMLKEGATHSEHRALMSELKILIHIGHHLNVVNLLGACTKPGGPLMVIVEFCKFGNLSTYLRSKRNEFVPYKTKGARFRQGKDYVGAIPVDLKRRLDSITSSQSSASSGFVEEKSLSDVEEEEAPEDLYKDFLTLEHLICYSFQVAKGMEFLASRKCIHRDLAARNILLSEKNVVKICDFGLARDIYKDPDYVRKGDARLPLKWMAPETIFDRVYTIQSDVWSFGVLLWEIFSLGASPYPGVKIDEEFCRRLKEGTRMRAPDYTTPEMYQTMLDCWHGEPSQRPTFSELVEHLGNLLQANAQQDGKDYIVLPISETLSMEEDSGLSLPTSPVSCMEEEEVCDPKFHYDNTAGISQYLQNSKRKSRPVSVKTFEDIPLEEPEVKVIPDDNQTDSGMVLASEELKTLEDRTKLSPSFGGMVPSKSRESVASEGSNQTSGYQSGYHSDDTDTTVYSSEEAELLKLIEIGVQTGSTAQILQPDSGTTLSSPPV
T1 sequence (P00533 25-1210): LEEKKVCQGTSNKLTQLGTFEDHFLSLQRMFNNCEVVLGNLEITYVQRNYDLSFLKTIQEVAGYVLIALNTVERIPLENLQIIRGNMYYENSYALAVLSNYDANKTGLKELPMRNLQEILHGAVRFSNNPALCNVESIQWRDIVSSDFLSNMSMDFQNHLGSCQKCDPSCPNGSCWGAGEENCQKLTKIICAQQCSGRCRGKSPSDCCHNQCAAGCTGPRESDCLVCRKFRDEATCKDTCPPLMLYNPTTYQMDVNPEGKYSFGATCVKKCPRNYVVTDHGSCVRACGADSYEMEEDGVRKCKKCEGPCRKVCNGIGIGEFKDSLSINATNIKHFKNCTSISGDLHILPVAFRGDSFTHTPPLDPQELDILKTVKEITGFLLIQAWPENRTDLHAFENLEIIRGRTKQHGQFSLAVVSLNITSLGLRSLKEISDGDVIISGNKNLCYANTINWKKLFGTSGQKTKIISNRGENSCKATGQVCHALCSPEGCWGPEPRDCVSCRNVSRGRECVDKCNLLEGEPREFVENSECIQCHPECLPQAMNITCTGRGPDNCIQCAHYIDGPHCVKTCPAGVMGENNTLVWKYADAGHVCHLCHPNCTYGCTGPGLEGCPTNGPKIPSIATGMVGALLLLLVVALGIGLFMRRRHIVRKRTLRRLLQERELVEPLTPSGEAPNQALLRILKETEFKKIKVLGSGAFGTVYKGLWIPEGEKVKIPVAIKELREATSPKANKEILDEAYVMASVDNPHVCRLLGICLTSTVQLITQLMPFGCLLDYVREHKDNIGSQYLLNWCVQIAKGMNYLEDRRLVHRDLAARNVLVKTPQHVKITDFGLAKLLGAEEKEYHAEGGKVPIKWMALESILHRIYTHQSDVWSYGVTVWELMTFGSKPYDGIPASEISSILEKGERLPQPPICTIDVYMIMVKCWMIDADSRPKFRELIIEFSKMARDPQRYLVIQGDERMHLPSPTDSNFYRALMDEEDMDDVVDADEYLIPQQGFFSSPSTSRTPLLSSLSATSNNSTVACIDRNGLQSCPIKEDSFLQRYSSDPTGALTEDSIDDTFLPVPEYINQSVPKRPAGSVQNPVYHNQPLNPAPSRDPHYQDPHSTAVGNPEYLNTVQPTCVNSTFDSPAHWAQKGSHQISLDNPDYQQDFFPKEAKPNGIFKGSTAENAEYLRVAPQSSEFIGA
AChE, sequence (P22303 32-614): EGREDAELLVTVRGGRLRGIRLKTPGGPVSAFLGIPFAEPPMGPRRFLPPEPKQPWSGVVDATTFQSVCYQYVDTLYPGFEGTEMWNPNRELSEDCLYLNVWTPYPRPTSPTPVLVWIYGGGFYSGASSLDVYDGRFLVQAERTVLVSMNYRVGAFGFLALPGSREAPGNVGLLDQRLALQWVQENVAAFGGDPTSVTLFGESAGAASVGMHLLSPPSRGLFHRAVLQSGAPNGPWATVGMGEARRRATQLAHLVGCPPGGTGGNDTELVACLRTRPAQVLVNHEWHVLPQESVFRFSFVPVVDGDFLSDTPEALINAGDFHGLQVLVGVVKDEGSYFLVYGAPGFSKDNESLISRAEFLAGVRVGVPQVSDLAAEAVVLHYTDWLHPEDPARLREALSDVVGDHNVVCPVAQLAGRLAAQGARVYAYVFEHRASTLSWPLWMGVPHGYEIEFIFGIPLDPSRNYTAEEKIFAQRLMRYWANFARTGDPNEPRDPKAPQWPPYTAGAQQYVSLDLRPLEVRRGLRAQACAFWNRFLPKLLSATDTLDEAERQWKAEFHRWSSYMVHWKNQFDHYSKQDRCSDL

SMILES | IC50 [1] [µM] | SI (selectivity index) MCF7 [1] | IC50 [2] [µM] | SI (selectivity index) HCT116 [2] | IC50 [3, 12] [µM] | IC50 [3, 13] [µM] | SI (selectivity index) A431 [3] | IC50 [4] [µM] | IC50 [5] [µM] | EGFR % Inhibition [6] [%] | EGFR RQ (relative quantification) [6] | VEGFR-2 % Inhibition [7] [%] | VEGFR-2 RQ (relative quantification) [7] | IC50 [8, 14] [µM] | IC50 [8, 15] [µM] | SI = CC50/IC50 [8] | CC50 at 24 h [9] [µM] | SI = IC50 (AChE)/IC50 (BChE) [10] | IC50 [10] [µM] | IC50 [11] [µM] | other results
CCS(=O)(=O)N1C/C(=C\c2ccc(F)cc2)C(=O)C2(C1)C(c1ccc(F)cc1)CN(C)C21C(=O)Nc2ccc(Cl)cc21 (centres unmarked) [Compound 6h, (E)-5-Chloro-1″-(ethylsulfonyl)-5″-(4-fluorobenzylidene)-4′-(4-fluorophenyl)-1′-methyldispiro[indoline-3,2′-pyrrolidine-3′,3″-piperidine]-2,4″-dione] | 4.69 ± 0.44 | > 10.7 | 4.6 ± 0.18 | > 10.9 | 6.04 ± 0.26 | 6.04 | > 8.3 | 14 ± 0.73 | > 50 | 67.2 | 1.13 | 66.2 | 1.104 | 7.69 | 7.69 | 34.1 | 262 | 0.8 | 6.3 ± 0.97 | 8.07 ± 1.47 | SI (selectivity index) PaCa-2 [4]: > 3.6
CN1CC(c2ccccc2)C2(CN(S(C)(=O)=O)C/C(=C\c3ccccc3)C2=O)C12C(=O)Nc1ccc(Cl)cc12 (centres unmarked) [Compound 6b, (E)-5″-Benzylidene-5-chloro-1′-methyl-1″-(methylsulfonyl)-4′-phenyldispiro[indoline-3,2′-pyrrolidine-3′,3″-piperidine]-2,4″-dione] | 7.66 ± 0.68 | 3.2 | 6.92 ± 0.52 | 3.6 | 9.15 ± 0.7 | 9.15 | 2.7 | 20.6 ± 1.17 | 24.7 ± 1.26 | 54.1 | 1.5804 | 64.2 | 1.167 | 9.63 | 9.63 | 132.0 | 1270 | 0.9 | 27.7 ± 5.45 | 29.2 ± 3.62 | SI (selectivity index) PaCa-2 [4]: 1.2
COc1ccc(/C=C2\CN(S(C)(=O)=O)CC3(C2=O)C(c2ccc(OC)c(OC)c2)CN(C)C32C(=O)Nc3ccc(Cl)cc32)cc1OC (centres unmarked) [Compound 6o, (E)-5-Chloro-5″-(3,4-dimethoxybenzylidene)-4′-(3,4-dimethoxyphenyl)-1′-methyl-1″-(methylsulfonyl)dispiro[indoline-3,2′-pyrrolidine-3′,3″-piperidine]-2,4″-dione] | 48.9 ± 1.84 | > 1.0 | 28.5 ± 0.75 | > 1.8 | 45.4 ± 1.84 | 45.4 | > 1.1 | > 50 | > 50 | 65.9 | 1.175 | 61.8 | 1.2473 | 88.2 | 88.2 | 2.2 | 196 | 1.1 | 27 ± 6.7 | 24.9 ± 4.6 | –
CCS(=O)(=O)N1C/C(=C\c2ccccc2)C(=O)C2(C1)C(c1ccccc1)CN(C)C21C(=O)Nc2ccc(Cl)cc21 (centres unmarked) [Compound 6d, (E)-5″-Benzylidene-5-chloro-1″-(ethylsulfonyl)-1′-methyl-4′-phenyldispiro[indoline-3,2′-pyrrolidine-3′,3″-piperidine]-2,4″-dione] | 6.92 ± 0.55 | > 7.2 | 5.18 ± 0.61 | > 9.7 | 4.96 ± 0.25 | 4.96 | > 10.1 | 13.1 ± 1.1 | > 50 | 62.9 | 1.2774 | 63.8 | 1.181 | 171 | 171 | 101.1 | 17300 | 1.2 | 41 ± 7.03 | 34.4 ± 2 | SI (selectivity index) PaCa-2 [4]: > 3.8
